According to patent US7858738B2, “Synthetic human peptides and pharmaceutical compositions comprising them for the treatment of systemic lupus erythematosus” (Yeda Research and Development Co., Ltd., priority 2001, dated 2010):

Experiments:
BALB/c mice = assay: Treatment of 16/6Id-induced experimental SLE in BALB/c mice; assay type: in vivo; conditions: for mice with immune complex deposits in kidneys: 7 months after booster, untreated 9/10; for Anti-dsDNA O.D. (1:50), Mean ± SD: 16/6Id injected 1.1 ± 0.6; for Anti-dsDNA antibodies at a dilution of: 1:250, Mean ± SD: 16/6Id alone 1.16 ± 0.37; for Intensity of ICD In kidneys, Mean ± SD: 16/6Id alone 1.86 ± 0.38; for Anti-16/6 Id antibodies at a dilution of 1:1000, Mean ± SD: 16/6Id alone 2.55 ± 0.09; for Anti-dsDNA antibodies 1:1250, Mean ± SD: 16/6Id alone 0.47 ± 0.3; for Anti-16/6 Id antibodies 1:10000, Mean ± SD: 16/6Id alone 0.89 ± 0.1; for Intensity of ICD in kidneys, Mean ± SD: 16/6Id alone 1.6 ± 0.55
Experimental: Induction and treatment of experimental SLE. In order to induce experimental SLE, BALB/c mice were immunized with 1-2 μg of the human mAb 16/6Id and boosted 3 weeks later. For the prevention of experimental SLE, mice were given hCDR1 or hCDR3 (mCDR1 or revmCDR1 as control peptide in Example 12) intravenously (i.v.) or s.c. concomitant with the immunization, and were injected weekly thereafter for 5 weeks. Treatment of an established disease started three and a half months following disease induction with the 16/6Id, when clinical manifestations were already observed. In Example 12, mice received 10 weekly injections (i.v. or s.c.) of mCDR1 or revmCDR1 at a dose of 100 μg/mouse. Prevention and treatment of SLE-like disease in (NZB×NZW)F1 mice with the hCDR1 or mCDR1 peptide. For prevention of SLE, mice at the age of 2 months, before disease manifestations are observed, were injected s.c. with hCDR1 (or mCDR1 in Example 12, 250 μg/mouse) once a week for 10 weeks. To treat an established disease, mice at the age of 5-7 months were injected with hCDR1 (in Example 12, mCDR1 s.c., 250 μg/mouse) once a week for 10 weeks. Proliferative Responses. PBL were isolated from heparinized venous blood by Ficoll-Hypaque (Pharmacia) density-gradient centrifugation. All assays were performed, in triplicate, in flat-bottomed microtiter plates (Falcon, Becton Dickinson, Oxmard, Calif., USA) in which 2×10^5 PBL were cultured in enriched RPMI-1640 as described (Dayan et al., 2000). The PBL were exposed to various concentrations (0.1-40 μg/well) of the human anti-DNA 16/6Id mAb with and without the addition of the various CDR-based peptides at a concentration of at least 10-fold excess over that of the 16/6Id. Phytohemagglutinin (PHA; 2 μg/well) was used as a control for culture conditions at each experiment. The cultures were incubated in 7.5% CO2 at 37° C. for 6 days. Eighteen hours before the cells were harvested, [^3H]-thymidine (0.5μ Ci of 5 Ci/mmol) (Nuclear Research Center, Negev, Israel) was added to all cultures. Results are expressed as the mean thymidine incorporation in counts per minute (CPM) of triplicate culture±SD, or as stimulation index (S.I.; the ratio of mean CPM at the optimal concentration of the human 16/6Id to the mean CPM in the presence of medium alone). A S.I.≧2 was considered a positive response (Dayan et al., 2000). Inhibition (the ratio of mean CPM in the presence of the 16/6Id and various CDR-based peptides to the mean CPM with the 16/6Id without the CDR-based peptide) above 50% was considered positive. Induction of Cytokine Production. Mice that were immunized with the human 16/6Id mAb and either treated or not with the CDR-based peptide, were killed at different periods during or after treatment with the peptide. Splenocytes and lymph node cells (LNC) were harvested and incubated (5×10^6/ml) in the presence of the 16/6Id. Supernatants were collected after 48 and 72 h. Assessment of Cytokines in the Supernatants. Supernatants were collected 48 hours following the initiation of the cultures and stored at −70° C. Measurements of IL-2, IL-10, IFN-γ, and TNF-α were performed by ELISA by using the relevant standards, capture and detecting Abs (Pharmingen) according to the manufacturer's instructions. TGF-β was determined by an ELISA. Briefly, plates were coated with the recombinant human TGF-β1 sRIII/Fc chimera (R & D Systems Inc., Minneapolis, Minn., USA), and the second Ab used was the biotinylated anti-human TGF-β1 antibody (R & D Systems Inc.). The substrate solution used was TMB color Reagent (Helix Diagnostics, West Sacramento, Calif.), and enzyme activity was evaluated by using 570- and 630-nm filters. Detection of SLE-Associated Clinical and Pathological Manifestations. Proteinuria was measured semiquantitatively by using Combistix kit (Ames Division, Bayer Diagnostics, Newbury, U.K.). White blood cells (WBC, for leukopenia) were counted after a 10-fold dilution of heparinized blood in distilled water containing 1% acetic acid (vol/vol). […]

MMP-3 = MMP-3 levels in sera of (NZB×NZW)F1 mice (Western blot); assay type: in vivo; conditions: 300 μg s.c. once a week from age 7 months; sera after 5 injections; FIG. 23
Experimental: (§1) Induction and treatment of experimental SLE. In order to induce experimental SLE, BALB/c mice were immunized with 1-2 μg of the human mAb 16/6Id and boosted 3 weeks later. For the prevention of experimental SLE, mice were given hCDR1 or hCDR3 (mCDR1 or revmCDR1 as control peptide in Example 12) intravenously (i.v.) or s.c. concomitant with the immunization, and were injected weekly thereafter for 5 weeks. Treatment of an established disease started three and a half months following disease induction with the 16/6Id, when clinical manifestations were already observed. In Example 12, mice received 10 weekly injections (i.v. or s.c.) of mCDR1 or revmCDR1 at a dose of 100 μg/mouse. Prevention and treatment of SLE-like disease in (NZB×NZW)F1 mice with the hCDR1 or mCDR1 peptide. For prevention of SLE, mice at the age of 2 months, before disease manifestations are observed, were injected s.c. with hCDR1 (or mCDR1 in Example 12, 250 μg/mouse) once a week for 10 weeks. To treat an established disease, mice at the age of 5-7 months were injected with hCDR1 (in Example 12, mCDR1 s.c., 250 μg/mouse) once a week for 10 weeks. Proliferative Responses. PBL were isolated from heparinized venous blood by Ficoll-Hypaque (Pharmacia) density-gradient centrifugation. […] Results are expressed as the mean thymidine incorporation in counts per minute (CPM) of triplicate culture±SD, or as stimulation index (S.I.; the ratio of mean CPM at the optimal concentration of the human 16/6Id to the mean CPM in the presence of medium alone). […] TGF-β was determined by an ELISA. […] The substrate solution used was TMB color Reagent (Helix Diagnostics, West Sacramento, Calif.), and enzyme activity was evaluated by using 570- and 630-nm filters. […] Proteinuria was measured semiquantitatively by using Combistix kit (Ames Division, Bayer Diagnostics, Newbury, U.K.). White blood cells (WBC, for leukopenia) were counted after a 10-fold dilution of heparinized blood in distilled water containing 1% acetic acid (vol/vol). […]

[1] = test system: splenocytes of (NZB×NZW)F1 mice; assay: Cytokine pattern in supernatants of splenocyte cultures of treated (NZB×NZW)F1 mice (ELISA); assay type: in vivo; conditions: end of treatment (10 weekly s.c. injections, 300 μg)
Experimental: as §1

PBL of SLE patients = assay: Proliferation of PBL of SLE patients stimulated with the mitogen PHA; assay type: cell-based, human; conditions: PBL of one SLE patient; PHA 2 μg/ml; FIG. 5
Experimental: To this end the peptides hCDR1 or hCDR3 were added to cultures of PBL of SLE patients that were stimulated with the mitogen phytohemagglutinin (PHA, 2 μg/ml).

[2] = test system: lymph node cells of the BALB/c mice; assay: Cytokine production by 16/6Id-stimulated LNC of treated BALB/c mice (ELISA); assay type: in vivo; conditions: BALB/c mice immunized with 16/6Id, hCDR1 50 μg, LNC stimulated with 16/6Id
Experimental: as §1

[3] = Table 11, 200 μg/mouse for 10 weeks
[4] = Table 11, 300 μg/mouse for 10 weeks
[5] = Table 11, 400 μg/mouse for 10 weeks

“GYYWSWIRQPPGKGEEWIG (Human) [hCDR1, 19-mer peptide based on the CDR1 of the heavy chain of the human 16/6Id mAb]” was tested, and the “mice with immune complex deposits in kidneys” value (BALB/c mice; 100 μg/mouse) was 3/10, the “mice with immune complex deposits in kidneys” value (BALB/c mice; 300 μg/mouse for 10 weeks) was 2/9 and the “Proteinuria g/l, Mean ± SD” value (BALB/c mice; Table 10, 100 μg, end of treatment, 16/6Id injected 0.65 ± 0.36) was 0.3 ± 0.02 g/L. For the same sequence, the “Anti-dsDNA O.D. (1:50), Mean ± SD” value (BALB/c mice; Table 10, 100 μg, end of treatment) was 0.3 ± 0.2 O.D, the “WBC/mm^3, Mean ± SD” value (BALB/c mice; Table 10, 100 μg, end of treatment, 16/6Id injected 3260 ± 920) was 6090 ± 2160 /mm^3 and the “Proteinuria g/l, Mean ± SD” value (BALB/c mice; Table 10, 300 μg, end of treatment, 16/6Id injected 0.65 ± 0.36) was 0.34 ± 0.25 g/L. The “Anti-dsDNA O.D. (1:50), Mean ± SD” value (BALB/c mice; Table 10, 300 μg, end of treatment) was 0.55 ± 0.3 O.D, the “WBC/mm^3, Mean ± SD” value (BALB/c mice; Table 10, 300 μg, end of treatment, 16/6Id injected 3260 ± 920) was 5890 ± 2660 /mm^3 and the “Proteinuria g/l, Mean ± SD” value (BALB/c mice; Table 11, 200 μg/mouse for 10 weeks, 16/6Id alone 0.5 ± 0.34) was 0.13 ± 0.16 g/L. For the same sequence, the “Anti-dsDNA antibodies at a dilution of: 1:250, Mean ± SD” value (BALB/c mice; [3]) was 0.69 ± 0.39, the “Intensity of ICD In kidneys, Mean ± SD” value (BALB/c mice; [3]) was 0.57 ± 0.97 and the “Anti-16/6 Id antibodies at a dilution of 1:1000, Mean ± SD” value (BALB/c mice; [3]) was 2.7 ± 0.12. The “WBC/mm^3, Mean ± SD” value (BALB/c mice; Table 11, 200 μg/mouse for 10 weeks, 16/6Id alone 2871 ± 1205) was 5625 ± 1659 /mm^3, the “Proteinuria g/l, Mean ± SD” value (BALB/c mice; Table 11, 300 μg/mouse for 10 weeks, 16/6Id alone 0.5 ± 0.34) was 0.16 ± 0.16 g/L and the “Anti-dsDNA antibodies at a dilution of: 1:250, Mean ± SD” value (BALB/c mice; [4]) was 0.45 ± 0.24. For the same sequence, the “Intensity of ICD In kidneys, Mean ± SD” value (BALB/c mice; [4]) was 0.75 ± 0.71, the “Anti-16/6 Id antibodies at a dilution of 1:1000, Mean ± SD” value (BALB/c mice; [4]) was 2.8 ± 0.11 and the “WBC/mm^3, Mean ± SD” value (BALB/c mice; Table 11, 300 μg/mouse for 10 weeks, 16/6Id alone 2871 ± 1205) was 4677 ± 1508 /mm^3. The “Proteinuria g/l, Mean ± SD” value (BALB/c mice; Table 11, 400 μg/mouse for 10 weeks, 16/6Id alone 0.5 ± 0.34) was 0.11 ± 0.15 g/L, the “Anti-dsDNA antibodies at a dilution of: 1:250, Mean ± SD” value (BALB/c mice; [5]) was 0.8 ± 0.39 and the “Intensity of ICD In kidneys, Mean ± SD” value (BALB/c mice; [5]) was 0.71 ± 0.76. For the same sequence, the “Anti-16/6 Id antibodies at a dilution of 1:1000, Mean ± SD” value (BALB/c mice; [5]) was 2.75 ± 0.1, the “WBC/mm^3, Mean ± SD” value (BALB/c mice; Table 11, 400 μg/mouse for 10 weeks, 16/6Id alone 2871 ± 1205) was 4012 ± 1421 /mm^3 and the “Anti-dsDNA antibodies 1:1250, Mean ± SD” value (BALB/c mice; Table 12, 200 μg/mouse weekly) was 0.23 ± 0.1. The “Proteinuria g/l, Mean ± SD” value (BALB/c mice; Table 12, 200 μg/mouse weekly, 16/6Id alone 0.58 ± 0.34) was 0.17 ± 0.15 g/L, the “Anti-16/6 Id antibodies 1:10000, Mean ± SD” value (BALB/c mice; Table 12, 200 μg/mouse weekly) was 0.96 ± 0.2 and the “Intensity of ICD in kidneys, Mean ± SD” value (BALB/c mice; Table 12, 200 μg/mouse weekly) was 1 ± 0.63. For the same sequence, the “WBC/mm^3, Mean ± SD” value (BALB/c mice; Table 12, 200 μg/mouse weekly, 16/6Id alone 2800 ± 300) was 4900 ± 800 /mm^3, the “Anti-dsDNA antibodies 1:1250, Mean ± SD” value (BALB/c mice; Table 12, 300 μg/mouse weekly) was 0.2 ± 0.1 and the “Proteinuria g/l, Mean ± SD” value (BALB/c mice; Table 12, 300 μg/mouse weekly, 16/6Id alone 0.58 ± 0.34) was 0.085 ± 0.01 g/L. For the same sequence, the “Anti-16/6 Id antibodies 1:10000, Mean ± SD” value (BALB/c mice; Table 12, 300 μg/mouse weekly) was 0.93 ± 0.1, the “Intensity of ICD in kidneys, Mean ± SD” value (BALB/c mice; Table 12, 300 μg/mouse weekly) was 0.5 ± 0.5 and the “WBC/mm^3, Mean ± SD” value (BALB/c mice; Table 12, 300 μg/mouse weekly, 16/6Id alone 2800 ± 300) was 5800 ± 300 /mm^3. For the same sequence, the “levels of MMP-3 in pooled sera” value (MMP-3) was “down regulated”, the “INF-γ in supernatants of Con A-stimulated splenocytes” value ([1]; FIG. 13A) was “down-regulated” and the “TGF-β in supernatants of non-stimulated splenocytes” value ([1]; FIG. 13C) was “increased secretion”. For the same sequence, the “IL-10 in supernatants of Con A-stimulated splenocytes” value ([1]; to a lesser extent, FIG. 13B) was “down-regulated”, the “inhibition of the proliferative responses of the PBL to the mitogen PHA” value (PBL of SLE patients) was “could not inhibit” and the “production of INF-γ” value ([2]; FIG. 3A) was “down-regulated”. The “secretion of TGF-β” value ([2]; FIG. 3B) was “up-regulated” and the “secretion of IL-10” value ([2]; FIG. 3C) was “up-regulated”.

For “YYCARGLLRGGWNDVDYYGMDV (Human) [hCDR3, peptide based on the CDR3 of the heavy chain of the human 16/6Id mAb]”, the “inhibition of the proliferative responses of the PBL to the mitogen PHA” value (PBL of SLE patients) was “could not inhibit”.
